Experimental data from ChEMBL document CHEMBL4433202, “Design and development of multitarget-directed N-Benzylpiperidine analogs as potential candidates for the treatment of Alzheimer's disease” (Eur J Med Chem, 2019).
The source made the active and inactive calls. No cut-off for these calls is given here.

Columns and labels:
Cholinesterase = Cholinesterase (Homo sapiens, UniProt P06276); experiment: Inhibition of human serum butyrylcholinesterase using BTCI as substrate pre-incubated for 10 mins followed by substrate addition and measured for 6 mins by Ellman's method
Sequence of Cholinesterase (P06276 whole entry, the tested form may be a part): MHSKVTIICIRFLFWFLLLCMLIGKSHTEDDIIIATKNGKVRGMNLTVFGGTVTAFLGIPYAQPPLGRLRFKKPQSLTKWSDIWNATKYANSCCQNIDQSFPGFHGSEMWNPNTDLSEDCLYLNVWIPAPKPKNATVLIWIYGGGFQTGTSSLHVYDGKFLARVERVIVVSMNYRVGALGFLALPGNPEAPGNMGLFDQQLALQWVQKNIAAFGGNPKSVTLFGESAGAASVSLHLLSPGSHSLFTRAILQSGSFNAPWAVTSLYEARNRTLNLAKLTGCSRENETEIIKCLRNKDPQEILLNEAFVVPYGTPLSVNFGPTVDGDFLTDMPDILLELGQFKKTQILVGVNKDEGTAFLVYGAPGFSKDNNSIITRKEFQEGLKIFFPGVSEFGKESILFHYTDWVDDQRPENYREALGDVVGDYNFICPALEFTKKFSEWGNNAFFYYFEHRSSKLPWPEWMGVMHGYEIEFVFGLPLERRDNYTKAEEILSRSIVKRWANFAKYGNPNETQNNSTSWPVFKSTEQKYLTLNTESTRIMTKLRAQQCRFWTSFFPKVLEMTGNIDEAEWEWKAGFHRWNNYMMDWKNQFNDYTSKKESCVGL

Beta-secretase 1 = Beta-secretase 1 (Homo sapiens, UniProt P56817); experiment: Inhibition of human BACE1 using as 7-Methoxycoumarin-4-acetyl-[Asn670, Leu671]-Amyloid beta/A4 precursor protein 770 fragment 667-676-(2,4-dinitrophenyl) Lys-Arg-Arg amide trifluoroacetate salt as substrate incubated for 2 hrs by FRET based florescence assay
Sequence of Beta-secretase 1 (P56817 whole entry, the tested form may be a part): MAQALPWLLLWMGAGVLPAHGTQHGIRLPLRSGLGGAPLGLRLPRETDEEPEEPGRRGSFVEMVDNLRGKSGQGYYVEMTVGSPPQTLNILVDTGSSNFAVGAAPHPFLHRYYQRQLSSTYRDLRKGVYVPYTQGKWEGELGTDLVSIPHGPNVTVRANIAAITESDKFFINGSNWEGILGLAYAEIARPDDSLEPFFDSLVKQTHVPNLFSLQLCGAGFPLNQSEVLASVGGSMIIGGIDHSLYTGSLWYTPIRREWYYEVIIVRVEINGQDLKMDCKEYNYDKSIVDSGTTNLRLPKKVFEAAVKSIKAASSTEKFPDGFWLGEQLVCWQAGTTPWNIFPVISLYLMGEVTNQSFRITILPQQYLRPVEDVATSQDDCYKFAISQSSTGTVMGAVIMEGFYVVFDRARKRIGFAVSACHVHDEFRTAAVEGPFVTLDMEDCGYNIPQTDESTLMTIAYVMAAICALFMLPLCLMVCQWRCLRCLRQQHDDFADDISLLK

Acetylcholinesterase [1] = molecular target: T1, Acetylcholinesterase (Homo sapiens, UniProt P22303); experiment: Inhibition of human erythrocyte acetylcholinesterase using acetylthiocholine iodide as substrate pre-incubated for 10 mins followed by substrate addition and measured for 6 mins by Ellman's method
T1 sequence (P22303 whole entry): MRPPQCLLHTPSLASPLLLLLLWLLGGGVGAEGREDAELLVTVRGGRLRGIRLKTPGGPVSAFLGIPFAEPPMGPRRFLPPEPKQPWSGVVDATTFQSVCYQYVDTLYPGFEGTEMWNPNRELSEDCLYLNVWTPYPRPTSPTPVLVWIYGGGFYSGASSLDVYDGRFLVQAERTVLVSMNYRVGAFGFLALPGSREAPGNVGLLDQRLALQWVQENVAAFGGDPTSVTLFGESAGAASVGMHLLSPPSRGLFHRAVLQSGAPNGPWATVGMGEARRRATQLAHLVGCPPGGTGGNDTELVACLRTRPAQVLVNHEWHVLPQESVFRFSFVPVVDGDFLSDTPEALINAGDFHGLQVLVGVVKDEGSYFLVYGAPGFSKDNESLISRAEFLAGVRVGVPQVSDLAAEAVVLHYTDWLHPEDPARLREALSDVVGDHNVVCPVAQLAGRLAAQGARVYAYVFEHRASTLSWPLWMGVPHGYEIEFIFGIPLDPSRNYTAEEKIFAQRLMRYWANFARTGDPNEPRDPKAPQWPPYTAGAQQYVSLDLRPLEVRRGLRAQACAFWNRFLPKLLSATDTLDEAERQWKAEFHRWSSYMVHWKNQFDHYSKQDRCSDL

[2] = Cytotoxicity against human SH-SY5Y cells assessed as cell viability at 10 to 80 uM after 48 hrs by MTT assay relative to control; type: cell-based; details: read-out: Activity
Rattus norvegicus [3] = experiment: Antioxidant activity Wistar rat model of scopolamine-induced amnesia assessed as reduction in MDA levels in brain homogenates at 10 mg/kg, po by TBARS assay; type: functional, organism-based
[4] = Acute toxicity in Wistar rat assessed as induction of abnormal reactions at 100 to 500 mg/kg, po measured up to 14 days; type: organism-based; details: in vivo, 336 h
Acetylcholinesterase [5] = molecular target: T1, Acetylcholinesterase; experiment: Non-competitive inhibition of human erythrocyte AChE using acetylthiocholine iodide as substrate preincubated for 10 mins followed by substrate addition and measured for 6 mins by Lineweaver-Burk plot analysis
Rattus norvegicus [6] = experiment: Reversal of scopolamine-induced spatial memory impairment in Wistar rat model of amnesia assessed as decrease in transfer latency at 2.5 to 10 mg/kg, po administered once daily for 1 week followed by scopolamine challenge 30 mins prior to test by elevated plus maze test; type: functional, organism-based
Rattus norvegicus [7] = experiment: Cognitive enhancing effect in Wistar rat model of amyloid beta (1 to 42) oligomer-induced memory impairment model assessed as increase in number of platform crossings at 10 mg/kg, po for 9 days by Morris water maze test; type: functional, organism-based
[8] = Elimination half life in Wistar rat at 10 mg/kg, po measured up to 0 to 72 hrs; type: ADME, organism-based; details: in vivo, read-out: beta t1/2 (converted)
[9] = molecular target: Amyloid-beta precursor protein (Homo sapiens) (UniProt P05067); experiment: Inhibition of amyloid beta 1 to 42 (unknown origin) aggregation assessed as oligomer height at 10 uM incubated for 7 days by AFM analysis
Sequence of Amyloid-beta precursor protein (Homo sapiens) (P05067 whole entry): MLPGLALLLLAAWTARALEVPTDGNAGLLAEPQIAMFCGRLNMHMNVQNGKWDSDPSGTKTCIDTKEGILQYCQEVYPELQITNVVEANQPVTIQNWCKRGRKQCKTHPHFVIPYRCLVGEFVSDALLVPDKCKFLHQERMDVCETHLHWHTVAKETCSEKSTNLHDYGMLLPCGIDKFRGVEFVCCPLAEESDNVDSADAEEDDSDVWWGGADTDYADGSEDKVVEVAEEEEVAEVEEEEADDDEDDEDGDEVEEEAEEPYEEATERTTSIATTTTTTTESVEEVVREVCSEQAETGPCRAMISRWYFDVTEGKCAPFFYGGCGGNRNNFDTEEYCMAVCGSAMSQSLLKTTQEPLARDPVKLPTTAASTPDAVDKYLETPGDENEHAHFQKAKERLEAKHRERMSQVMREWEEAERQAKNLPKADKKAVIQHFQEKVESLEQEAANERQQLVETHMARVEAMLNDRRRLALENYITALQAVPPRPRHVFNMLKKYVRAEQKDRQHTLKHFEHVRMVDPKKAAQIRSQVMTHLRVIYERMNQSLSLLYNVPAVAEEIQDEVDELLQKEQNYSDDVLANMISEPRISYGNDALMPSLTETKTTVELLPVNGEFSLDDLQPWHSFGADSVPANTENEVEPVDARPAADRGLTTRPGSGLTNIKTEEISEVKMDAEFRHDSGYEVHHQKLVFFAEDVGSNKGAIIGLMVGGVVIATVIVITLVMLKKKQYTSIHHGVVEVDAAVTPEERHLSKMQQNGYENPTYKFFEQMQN

[10] = AUC (0 to 24 hrs) in Wistar rat at 10 mg/kg, po; type: ADME, organism-based; design: dose 10 mg/kg, time < 24 hr, route oral; details: in vivo
[11] = Permeability of the compound at 25 ug/ml after 18 hrs by PAMPA-BBB assay
Rattus norvegicus [12] = experiment: Cognitive enhancing effect in Wistar rat model of amyloid beta (1 to 42) oligomer-induced memory impairment model assessed as escape latency time at 10 mg/kg, po for 9 days by Morris water maze test (reference value: 49.3 to 74 secs); type: functional, organism-based
Acetylcholinesterase [13] = molecular target: T1, Acetylcholinesterase; experiment: Non-competitive inhibition of human erythrocyte AChE using acetylthiocholine iodide as substrate preincubated for 10 mins followed by substrate addition and measured for 6 mins by Dixon plot analysis
Rattus norvegicus [14] = experiment: Cognitive enhancing effect in Wistar rat model of amyloid beta (1 to 42) oligomer-induced memory impairment model assessed as escape latency time at 5 mg/kg, po for 9 days by Morris water maze test (reference value: 49.3 to 74 secs); type: functional
[15] = Acute toxicity in Wistar rat at 100 to 500 mg/kg, po measured up to 14 days; type: organism-based; details: in vivo, 336 h
Rattus norvegicus [16] = experiment: In-vivo inhibition of scopolamine-induced acetylcholinesterase activity in Wistar rat brain homogenates using acetylthiocholine iodide as substrate at 10 mg/kg, po and measured for 6 mins by Ellman's method; type: functional, organism-based
Rattus norvegicus [17] = experiment: Antioxidant activity Wistar rat model of scopolamine-induced amnesia assessed as increase in SOD levels in brain homogenates at 10 mg/kg, po by NBT dye based assay; type: functional, organism-based
[18] = molecular target: Amyloid-beta precursor protein (Homo sapiens) (UniProt P05067); experiment: Inhibition of amyloid beta 1 to 42 (unknown origin) aggregation assessed as roughness index at 10 uM incubated for 7 days by AFM analysis
Rattus norvegicus [19] = experiment: Reversal of scopolamine-induced spatial memory impairment in Wistar rat model of amnesia assessed as decrease in time spent on open arms at 2.5 to 10 mg/kg, po administered once daily for 1 week followed by scopolamine challenge 30 mins prior to test by elevated plus maze test; type: functional, organism-based
Rattus norvegicus [20] = experiment: Reversal of scopolamine-induced spatial memory impairment in Wistar rat model of amnesia assessed as increase in spontaneous alteration at 10 mg/kg, po administered once daily for 1 week followed by scopolamine challenge 30 mins prior to test by Y-maze test relative to control; type: functional, organism-based
[21] = Cmax in Wistar rat at 10 mg/kg, po measured up to 0 to 72 hrs; type: ADME, organism-based; design: dose 10 mg/kg, route oral; details: in vivo
[22] = MRT in Wistar rat at 10 mg/kg, po measured up to 0 to 72 hrs; type: ADME, organism-based; details: in vivo
[23] = Tmax in Wistar rat at 10 mg/kg, po measured up to 0 to 72 hrs; type: ADME, organism-based; details: in vivo
Rattus norvegicus [24] = experiment: Effect on total arm entries in scopolamine-induced spatial memory impairment in Wistar rat model of amnesia at 10 mg/kg, po administered once daily for 1 week followed by scopolamine challenge 30 mins prior to test by Y-maze test relative to control; type: functional, organism-based

## Oc1ccccc1CNC1CCN(Cc2ccccc2)CC1
Cholinesterase
  IC50: 14 µM
Beta-secretase 1
  IC50: 2 µM
Acetylcholinesterase [1]
  IC50: 2.4 µM

## Cc1cccc(CNC2CCN(Cc3ccccc3)CC2)c1
Cholinesterase
  IC50: > 30 µM
Beta-secretase 1
  IC50: 2.6 µM
Acetylcholinesterase [1]
  IC50: 4.1 µM

## FC(F)(F)c1ccc(CNC2CCN(Cc3ccccc3)CC2)cc1
[2]
  viability at 48 h, up to 80 µM: 84.6 to 99.2%
Rattus norvegicus [3]
  Activity: Active
[4]
  Activity: Non-Toxic
Acetylcholinesterase [5]
  inhibition: Active
Rattus norvegicus [6]
  Activity: Active
Rattus norvegicus [7]
  Activity: Active
[8]
  half-life: 29.2 h
[9]
  Activity: 44.5 to 104 nm
[10]
  AUC(0-t) at 24 h: 633 ng·h/mL
[11]
  Papp at 18 h, 25 ug/ml: 6.09 ×10⁻⁶ cm/s
Rattus norvegicus [12]
  Activity: Active
Acetylcholinesterase [13]
  Ki: 0.1 µM
Rattus norvegicus [14]
  Time: 20.3 to 74.5 s
[15]
  Activity: Non-Toxic
Cholinesterase
  IC50: 3 µM
Rattus norvegicus [16]
  inhibition: Active
Rattus norvegicus [17]
  Activity: Active
[18]
  Activity: 1.7 to 4.4 nm
Beta-secretase 1
  IC50: 0.22 µM
Acetylcholinesterase [1]
  IC50: 0.11 µM
Rattus norvegicus [19]
  Activity: Active
Rattus norvegicus [20]
  Activity: Active
[21]
  Cmax: 32.8 ng/mL
[22]
  MRT: 45.7 h
[23]
  Tmax: 5.3 h
Rattus norvegicus [24]
  Activity: inactive

## Cc1ccc(/C=N/C2CCN(Cc3ccccc3)CC2)cc1
Cholinesterase
  IC50: > 30 µM
Beta-secretase 1
  IC50: 19 µM
Acetylcholinesterase [1]
  IC50: 4.4 µM

## Clc1ccc(CNC2CCN(Cc3ccccc3)CC2)c(Cl)c1
Cholinesterase
  IC50: 3.5 µM
Beta-secretase 1
  IC50: 3 µM
Acetylcholinesterase [1]
  IC50: 0.62 µM

## Clc1ccc(CNC2CCN(Cc3ccccc3)CC2)cc1
Cholinesterase
  IC50: 4 µM
Beta-secretase 1
  IC50: 0.66 µM
Acetylcholinesterase [1]
  IC50: 0.85 µM

## FC(F)(F)Oc1ccc(CNC2CCN(Cc3ccccc3)CC2)cc1
Cholinesterase
  IC50: 3.5 µM
Beta-secretase 1
  IC50: 1.4 µM
Acetylcholinesterase [1]
  IC50: 0.59 µM

## Oc1ccc(CNC2CCN(Cc3ccccc3)CC2)cc1
Cholinesterase
  IC50: > 30 µM
Beta-secretase 1
  IC50: 9.9 µM
Acetylcholinesterase [1]
  IC50: 4 µM

## COc1cc2c(cc1OC)C(=O)C(CC1CCN(Cc3ccccc3)CC1)C2 (stereo unspecified) [DONEPEZIL]
Rattus norvegicus [14]
  Time: 22.5 to 72.5 s

## C(=N\C1CCN(Cc2ccccc2)CC1)/c1ccccc1
Cholinesterase
  IC50: > 30 µM
Beta-secretase 1
  IC50: 3.4 µM
Acetylcholinesterase [1]
  IC50: 2.1 µM

## O=[N+]([O-])c1ccc(/C=N/C2CCN(Cc3ccccc3)CC2)cc1
[11]
  Papp at 18 h, 25 ug/ml: 4.99 ×10⁻⁶ cm/s
Cholinesterase
  IC50: 7.3 µM
Beta-secretase 1
  IC50: 0.73 µM
Acetylcholinesterase [1]
  IC50: 0.9 µM

## Clc1ccc(/C=N/C2CCN(Cc3ccccc3)CC2)c(Cl)c1
Cholinesterase
  IC50: 5.8 µM
Beta-secretase 1
  IC50: 3.9 µM
Acetylcholinesterase [1]
  IC50: 1.3 µM

## Fc1ccc(/C=N/C2CCN(Cc3ccccc3)CC2)c(F)c1
Cholinesterase
  IC50: > 30 µM
Beta-secretase 1
  IC50: 3.5 µM
Acetylcholinesterase [1]
  IC50: 1.3 µM

## COc1cccc(/C=N/C2CCN(Cc3ccccc3)CC2)c1OC
Cholinesterase
  IC50: > 30 µM
Beta-secretase 1
  IC50: 6.3 µM
Acetylcholinesterase [1]
  IC50: > 15 µM

## FC(F)(F)Oc1ccc(/C=N/C2CCN(Cc3ccccc3)CC2)cc1
Cholinesterase
  IC50: 5.5 µM
Beta-secretase 1
  IC50: 1.8 µM
Acetylcholinesterase [1]
  IC50: 1 µM

## c1ccc(CNC2CCN(Cc3ccccc3)CC2)cc1
Cholinesterase
  IC50: 12 µM
Beta-secretase 1
  IC50: 2.9 µM
Acetylcholinesterase [1]
  IC50: 1.7 µM

## Oc1ccccc1/C=N/C1CCN(Cc2ccccc2)CC1
Cholinesterase
  IC50: 16 µM
Beta-secretase 1
  IC50: 2.7 µM
Acetylcholinesterase [1]
  IC50: 2.8 µM

## FC(F)(F)c1ccc(/C=N/C2CCN(Cc3ccccc3)CC2)cc1
[11]
  Papp at 18 h, 25 ug/ml: 6.24 ×10⁻⁶ cm/s
Cholinesterase
  IC50: 3.9 µM
Beta-secretase 1
  IC50: 0.28 µM
Acetylcholinesterase [1]
  IC50: 0.44 µM

## Fc1ccc(/C=N/C2CCN(Cc3ccccc3)CC2)cc1
Cholinesterase
  IC50: > 30 µM
Beta-secretase 1
  IC50: 1.5 µM
Acetylcholinesterase [1]
  IC50: 2.9 µM

## COc1cc(/C=N/C2CCN(Cc3ccccc3)CC2)cc(OC)c1OC
Cholinesterase
  IC50: 11 µM
Beta-secretase 1
  IC50: 14 µM
Acetylcholinesterase [1]
  IC50: > 15 µM

## Oc1ccc(/C=N/C2CCN(Cc3ccccc3)CC2)c(O)c1
Cholinesterase
  IC50: 19 µM
Beta-secretase 1
  IC50: 10 µM
Acetylcholinesterase [1]
  IC50: 2.6 µM

## COc1cccc(CNC2CCN(Cc3ccccc3)CC2)c1OC
Cholinesterase
  IC50: 7.2 µM
Beta-secretase 1
  IC50: 5.3 µM
Acetylcholinesterase [1]
  IC50: 2.2 µM

## COc1cc(CNC2CCN(Cc3ccccc3)CC2)cc(OC)c1OC
Cholinesterase
  IC50: 11 µM
Beta-secretase 1
  IC50: 13 µM
Acetylcholinesterase [1]
  IC50: 2.2 µM

## Cc1ccc(CNC2CCN(Cc3ccccc3)CC2)cc1
Cholinesterase
  IC50: > 30 µM
Beta-secretase 1
  IC50: 17 µM
Acetylcholinesterase [1]
  IC50: 3.7 µM

## Fc1ccc(CNC2CCN(Cc3ccccc3)CC2)c(F)c1
Cholinesterase
  IC50: 3.1 µM
Beta-secretase 1
  IC50: 2.9 µM
Acetylcholinesterase [1]
  IC50: 0.71 µM

## Oc1ccc(/C=N/C2CCN(Cc3ccccc3)CC2)cc1
Cholinesterase
  IC50: > 30 µM
Beta-secretase 1
  IC50: 12 µM
Acetylcholinesterase [1]
  IC50: 4.8 µM

## Fc1ccc(CNC2CCN(Cc3ccccc3)CC2)cc1
Cholinesterase
  IC50: 3.9 µM
Beta-secretase 1
  IC50: 0.55 µM
Acetylcholinesterase [1]
  IC50: 1.2 µM

## Clc1ccc(/C=N/C2CCN(Cc3ccccc3)CC2)cc1
Cholinesterase
  IC50: 4.6 µM
Beta-secretase 1
  IC50: 1.7 µM
Acetylcholinesterase [1]
  IC50: 1.5 µM

## O=[N+]([O-])c1ccc(CNC2CCN(Cc3ccccc3)CC2)cc1
[2]
  viability at 48 h, up to 80 µM: 76.3 to 96.3%
Rattus norvegicus [3]
  Activity: Active
[4]
  Activity: Non-Toxic
Rattus norvegicus [6]
  Activity: Active
[11]
  Papp at 18 h, 25 ug/ml: 4.41 ×10⁻⁶ cm/s
[15]
  Activity: Non-Toxic
Cholinesterase
  IC50: 7.8 µM
Rattus norvegicus [16]
  inhibition: Active
Rattus norvegicus [17]
  Activity: Active
Beta-secretase 1
  IC50: 0.43 µM
Acetylcholinesterase [1]
  IC50: 0.72 µM
Rattus norvegicus [19]
  Activity: Active
Rattus norvegicus [24]
  Activity: inactive

## Cc1cccc(/C=N/C2CCN(Cc3ccccc3)CC2)c1
Cholinesterase
  IC50: > 30 µM
Beta-secretase 1
  IC50: 3.3 µM
Acetylcholinesterase [1]
  IC50: > 15 µM

## Oc1ccc(CNC2CCN(Cc3ccccc3)CC2)c(O)c1
Cholinesterase
  IC50: 18 µM
Beta-secretase 1
  IC50: 5.9 µM
Acetylcholinesterase [1]
  IC50: 2.3 µM
